Results on 5 compounds are retold here after DBAASP.

Values after ≈ are worked out from the molar mass of the structure shown. Values joined by “and” are separate entries in the source; they are usually repeats but may differ in a detail not shown here. Equal entries are not always repeated. Bounds are passed on as bounds.

For orientation: MIC means the smallest concentration in the dilution series that meets the test's criterion for growth inhibition. Low values mean inhibition by little substance, high ones a need for much substance.

Among the test systems are Staphylococcus aureus; Enterococcus faecalis; Escherichia coli W3110; Serratia rubidaea X01; Escherichia coli 27A; Escherichia coli 23A; Staphylococcus aureus 6A; Yersinia pestis KIM pYV.
Test in all cases: ≥ marks a high value that may be exact or a test limit, other limits are often not marked, values filed in µg/mL are converted to µM
Test [1] has as its system Streptococcus mutans UA159.
For test [2], the system named is Streptococcus sobrinus ATCC 33478.
Test [3] relates to Streptococcus sanguinis NY101.
Test [4] concerns Pseudomonas aeruginosa PAK.
The subject of test [5] is Pseudomonas aeruginosa 1.50.
Test [6] deals with Staphylococcus carnosus KHS.
Test [7] deals with Bacillus licheniformis X39.
Test [8] relates to Staphylococcus aureus ATCC 2592.
The test system of test [9] is Psychrobacter faecalis X29.
The subject of test [10] is Escherichia coli ATCC 25922.
The test system of test [11] is Rhodococcus rhodochrous X15.
Test [12] relates to Candida albicans ATCC 2002.
The test system of test [13] is Pseudomonas aeruginosa 7A.
Test [14] deals with Staphylococcus aureus 15A.
The subject of test [15] is Pseudomonas aeruginosa 3A.
Test [16] deals with Staphylococcus aureus ATCC 33591.
For test [17], the system named is Pseudomonas aeruginosa MR3007.
Test [18] has as its system Staphylococcus aureus 930918-3.
Test [19] deals with Bordetella bronchiseptica CUN 11844-99.
The test system of test [20] is Staphylococcus aureus ATCC 43300.
For test [21], the system named is Escherichia coli ATCC 23716.
The test system of test [22] is Brucella abortus 9.49 (per-).
Test [23] relates to Staphylococcus aureus SA113.
The test system of test [24] is Acinetobacter baumannii ATCC 19606.
The test system of test [25] is Pseudomonas aeruginosa CUN 4158-02.

On to `CC[C@H](C)[C@H](NC(=O)[C@H](Cc1ccccc1)NC(=O)[C@H](Cc1cnc[nH]1)NC(=O)[C@H](CCCCN)NC(=O)[C@@H](NC(=O)[C@H](Cc1ccccc1)NC(=O)[C@@H]1CCCN1C(=O)[C@H](Cc1ccc(O)cc1)NC(=O)[C@@H]1CCCN1C(=O)[C@H](Cc1ccccc1)NC(=O)[C@H](Cc1cnc[nH]1)NC(=O)[C@H](CC(C)C)NC(=O)[C@H](Cc1cnc[nH]1)NC(=O)[C@H](Cc1ccccc1)NC(=O)[C@H](Cc1cnc[nH]1)NC(=O)[C@@H](N)Cc1ccccc1)[C@@H](C)CC)C(=O)N[C@@H](Cc1cnc[nH]1)C(=O)N[C@@H](CCCN=C(N)N)C(=O)N[C@@H](Cc1ccccc1)C(N)=O` [FHFHLHFPYPFIKHFIHRF], for which the MIC in test [1] is 12.5 µM (≈ 32 µg/mL); in test [2] it was 24.3 µM (≈ 62.5 µg/mL); in the test on Staphylococcus aureus, > 195 µM; in the test on Enterococcus faecalis it was ≥ 97.4 µM; in [3], 24.3 µM (≈ 62.5 µg/mL); in [4], ≥ 48.7 µM. The MIC against Escherichia coli W3110 is ≥ 48.7 µM.
`CSCC[C@H](NC(=O)CNC(=O)[C@H](C)NC(=O)[C@H](CCC(=O)O)NC(=O)[C@H](CCCCN)NC(=O)[C@H](C)NC(=O)[C@@H](NC(=O)CNC(=O)[C@H](CCCCN)NC(=O)[C@H](CC(C)C)NC(=O)[C@H](CC(C)C)NC(=O)[C@H](CC(=O)O)NC(=O)CNC(=O)[C@H](Cc1ccccc1)NC(=O)[C@H](C)NC(=O)CN)C(C)C)C(=O)N[C@@H](CCCCN)C(=O)N[C@@H](CC(C)C)C(=O)N[C@@H](CC(C)C)C(=O)N[C@@H](CC(N)=O)C(=O)N[C@@H](CCSC)C(=O)N[C@@H](C)C(=O)N[C@@H](CCC(N)=O)C(=O)N[C@H]1CSSC[C@@H](C(=O)O)NC(=O)[C@H](CCCCN)NC(=O)CNC(=O)[C@H](CO)NC(=O)[C@H](CC(C)C)NC(=O)[C@H](CCCCN)NC1=O` [GAFGDLLKGVAKEAGMKLLNMAQCKLSGKC]: the minimum inhibitory concentration (MIC) in test [5] is ≥ 65 µM; in test [6], 2 µM (≈ 6.16 µg/mL); in test [7], 8 µM (≈ 24.6 µg/mL); in test [8] it was 2 µM (≈ 6.16 µg/mL); in test [9], 0.5 µM (≈ 1.54 µg/mL); in test [10], 32.5 µM (≈ 100 µg/mL). Also, the minimum inhibitory concentration (MIC) was ≥ 130 µM against Serratia rubidaea X01 and 0.5 µM (≈ 1.54 µg/mL) in [11].
As for `CC[C@H](C)[C@H](N)C(=O)N[C@@H](CC(N)=O)C(=O)N[C@@H](CCSC)C(=O)N[C@@H](CCCCN)C(=O)N[C@@H](C)C(=O)N[C@@H](CO)C(=O)N[C@@H](C)C(=O)N[C@@H](C)C(=O)N[C@H](C(=O)N[C@@H](C)C(=O)N[C@@H](CCCCN)C(=O)N[C@@H](CCCCN)C(=O)N[C@@H](CC(C)C)C(=O)N[C@@H](CC(C)C)C(=O)O)C(C)C` [INMKASAAVAKKLL], the MIC in test [12] is 10.3 µM (≈ 15 µg/mL); in [13], ≥ 82.3 µM; in [14], 2.57 µM (≈ 3.75 µg/mL); in the test on Escherichia coli 27A, ≥ 41.2 µM; with Escherichia coli 23A, 10.3 µM (≈ 15 µg/mL); in test [8], 2.57 µM (≈ 3.75 µg/mL). Also, the minimal inhibitory concentration (MIC) in test [10] is 10.3 µM (≈ 15 µg/mL); against Staphylococcus aureus 6A, 1.3 µM (≈ 1.9 µg/mL); in test [15], 10.3 µM (≈ 15 µg/mL).
On to `CC[C@H](C)[C@H](NC(=O)[C@H](CCCCN)NC(=O)[C@H](CCCCN)NC(=O)[C@H](CC(C)C)NC(=O)[C@H](CCCCN)NC(=O)[C@H](CCC(=O)O)NC(=O)[C@H](CCCCN)NC(=O)[C@@H](NC(=O)[C@@H](N)CCCCN)[C@@H](C)CC)C(=O)NCC(=O)N[C@@H](CCC(N)=O)C(=O)N[C@@H](CCCCN)C(=O)N[C@H](C(=O)N[C@@H](CCC(N)=O)C(=O)NCC(=O)O)[C@@H](C)CC` [KIKEKLKKIGQKIQG], for which the minimum inhibitory concentration (MIC) in test [16], in [17] and in test [18] was ≥ 143 µM each time.
Take `CC[C@H](C)[C@H](NC(=O)[C@H](CCCCN)NC(=O)[C@H](CCCCN)NC(=O)[C@H](CO)NC(=O)[C@@H](NC(=O)CNC(=O)[C@H](CCCN=C(N)N)NC(=O)[C@H](CC(C)C)NC(=O)[C@@H](NC(=O)[C@@H](N)CCCCN)[C@@H](C)CC)C(C)C)C(=O)N[C@@H](CCSC)C(=O)N[C@@H](CCCN=C(N)N)C(=O)N[C@@H](CCCN=C(N)N)C(=O)N[C@H](C(=O)N[C@@H](CO)C(=O)N[C@@H](CCCCN)C(=O)N[C@@H](CC(=O)O)C(=O)N[C@H](C(=O)N[C@@H](CC(C)C)C(=O)N[C@H](C(=O)NCC(=O)N[C@@H](CCCCN)C(=O)N[C@@H](CCCCN)C(N)=O)[C@@H](C)O)[C@@H](C)CC)[C@@H](C)CC` [KILRGVSKKIMRRISKDILTGKK]: the minimum inhibitory concentration (MIC) in [19] was 0.375 µM (≈ 1 µg/mL); in test [20] it was > 95.9 µM; in test [21], 5.99 µM and 4.68 µM; in [22], 1.5 µM (≈ 4 µg/mL); in the test with Staphylococcus aureus it was 24 µM and 48 µM; in test [23] it was ≥ 95.9 µM. The minimum inhibitory concentration (MIC) in test [24] is 3 µM (≈ 8 µg/mL); in test [25], 5.99 µM (≈ 16 µg/mL); against Yersinia pestis KIM pYV, ≥ 48 µM; in [10], 5.99 µM (≈ 16 µg/mL).
